Where two headings read alike, the source gives them in different places.
Tests used:
[1] = target: T1, STAT6 (Homo sapiens, UniProt P42226); test: Immunoblotting (Western blot) analysis of STAT6 degradation efficiency of degraders in treated cells; type: cell-based
T1 construct: endogenous in cells; host or cells: MOLM-16, KU-812, SKNO1, MB231, L1236
T1 sequence (P42226 1-847): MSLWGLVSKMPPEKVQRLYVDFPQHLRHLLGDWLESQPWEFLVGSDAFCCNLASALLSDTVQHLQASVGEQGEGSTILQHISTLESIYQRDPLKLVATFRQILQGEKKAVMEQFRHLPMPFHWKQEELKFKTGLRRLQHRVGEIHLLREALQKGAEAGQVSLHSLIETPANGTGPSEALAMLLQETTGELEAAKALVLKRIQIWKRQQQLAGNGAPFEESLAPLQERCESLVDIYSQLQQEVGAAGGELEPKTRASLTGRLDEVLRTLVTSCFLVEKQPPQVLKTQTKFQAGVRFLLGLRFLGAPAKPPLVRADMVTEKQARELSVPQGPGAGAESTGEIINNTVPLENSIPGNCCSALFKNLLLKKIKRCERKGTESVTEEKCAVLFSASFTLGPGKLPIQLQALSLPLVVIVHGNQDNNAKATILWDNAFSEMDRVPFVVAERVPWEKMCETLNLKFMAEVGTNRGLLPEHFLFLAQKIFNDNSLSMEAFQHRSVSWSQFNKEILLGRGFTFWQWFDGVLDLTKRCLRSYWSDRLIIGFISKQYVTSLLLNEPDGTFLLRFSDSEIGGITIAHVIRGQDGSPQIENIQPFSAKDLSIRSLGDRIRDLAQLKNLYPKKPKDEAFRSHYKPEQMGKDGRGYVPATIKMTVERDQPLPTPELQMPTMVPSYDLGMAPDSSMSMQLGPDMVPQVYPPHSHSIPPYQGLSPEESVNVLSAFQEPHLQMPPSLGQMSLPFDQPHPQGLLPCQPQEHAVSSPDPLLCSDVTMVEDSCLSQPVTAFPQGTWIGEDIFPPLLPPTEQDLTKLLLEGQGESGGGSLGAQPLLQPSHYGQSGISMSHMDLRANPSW
Outline: (§1)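 Read-out: fluorescent IRDye 680RD/800CW secondaries imaged on an infrared scanner, with band intensities quantified by densitometry and GAPDH serving as loading control. Samples were RIPA lysates, BCA-normalised, from ~1 million treated cells.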

[2] = test system: STAT5; test: Immunoblotting (Western blot) analysis of STAT5 degradation efficiency of degraders in treated cells; type: cell-based
Outline: as §1

[3] = MOLM-16 cells, numeric bound, read-out: DC50 S6 MOLM-16
[4] = MOLM-16 cells, numeric bound, read-out: DC50 S5 MOLM-16
[5] = KU-812 cells, read-out: DC50 S6 KU-812
[6] = MOLM-16 cells, class symbols, read-out: DC50 S6 MOLM-16
[7] = KU-812 cells, read-out: DC50 S5 KU-812
[8] = MOLM-16 cells, class symbols, read-out: DC50 S5 MOLM-16
[9] = SKNO1 cells, read-out: DC50 S5 SKNO1
[10] = MB231 cells, read-out: DC50 S6 MB231

| SMILES | DC50 [1, 3] | DC50 [2, 4] | DC50 [2, 7] | DC50 [2, 8] | DC50 [2, 9] | further results |
| --- | --- | --- | --- | --- | --- | --- |
| Cc1ncsc1-c1ccc([C@H](CC(=O)NCCCCCCCC(=O)N[C@@H]2C[C@@H](C(=O)Nc3ncc(-c4ccccc4)s3)N(C(=O)[C@@H](NC(=O)c3cc4cc(C(F)(F)P(=O)(O)O)ccc4s3)C(C)(C)C)C2)NC(=O)[C@@H]2C[C@@H](O)CN2C(=O)[C@@H](NC(=O)C2(F)CC2)C(C)(C)C)cc1 [Compound 577, (difluoro(2-(((S)-1-((2S,4R)-4-(8-((S)-3-((2S,4R)-1-((S)-2-(1-fluorocyclopropane-1-carboxamido)-3,3-dimethylbutanoyl)-4-hydroxypyrrolidine-2-carboxamido)-3-(4-(4-methylthiazol-5-yl)phenyl)propanamido)octanamido)-2-((5-phenylthiazol-2-yl)carbamoyl)pyrrolidin-1-yl)-3,3-dimethyl-1-oxobutan-2-yl)carbamoyl)benzo[b]thiophen-5-yl)methyl)phosphonic acid] | > 0.3 µM | > 0.3 µM | – | – | – | – |
| CN(CCCC#Cc1cccc2c1CN(C1CCC(=O)NC1=O)C2=O)C(=O)CCN(C(=O)[C@@H]1CCCN1C(=O)[C@@H](NC(=O)c1cc2cc(C(F)(F)P(=O)(O)O)ccc2s1)C(C)(C)C)c1ccc(-c2nccs2)cc1 (stereo partly drawn) [Compound 681, ((2-(((2S)-1-((2S)-2-((3-((5-(2-(2,6-Dioxopiperidin-3-yl)-1-oxoisoindolin-4-yl)pent-4-yn-1-yl)(methyl)amino)-3-oxopropyl)(4-(thiazol-2-yl)phenyl)carbamoyl)pyrrolidin-1-yl)-3,3-dimethyl-1-oxobutan-2-yl)carbamoyl)benzo[b]thiophen-5-yl)difluoromethyl)phosphonic acid] | – | – | 0.1 to 1 µM | < 0.1 µM | 0.1 to 1 µM | DC50 [1, 5]: > 10 µM; DC50 [1, 6]: > 10 µM; DC50 ([1]; SKNO1 cells, read-out: DC50 S6 SKNO1): > 10 µM |
| Cc1ncsc1-c1ccc([C@H](CC(=O)NCCOCCC(=O)N[C@@H]2C[C@@H](C(=O)Nc3ncc(-c4ccccc4)s3)N(C(=O)[C@@H](NC(=O)c3cc4cc(C(F)(F)P(=O)(O)O)ccc4s3)C(C)(C)C)C2)NC(=O)[C@@H]2C[C@@H](O)CN2C(=O)[C@@H](NC(=O)C2(F)CC2)C(C)(C)C)cc1 [Compound 580, (difluoro(2-(((S)-1-((2S,4R)-4-(3-(2-((S)-3-((2S,4R)-1-((S)-2-(1-fluorocyclopropane-1-carboxamido)-3,3-dimethylbutanoyl)-4-hydroxypyrrolidine-2-carboxamido)-3-(4-(4-methylthiazol-5-yl)phenyl)propanamido)ethoxy)propanamido)-2-((5-phenylthiazol-2-yl)carbamoyl)pyrrolidin-1-yl)-3,3-dimethyl-1-oxobutan-2-yl)carbamoyl)benzo[b]thiophen-5-yl)methyl)phosphonic acid] | > 0.3 µM | > 0.3 µM | – | – | – | – |
| CC(C)(C)[C@H](NC(=O)c1cc2cc(C(F)(F)P(=O)(O)O)ccc2s1)C(=O)N1C[C@H](NC(=O)CCCCCC#Cc2cccc3c2CN(C2CCC(=O)NC2=O)C3=O)C[C@H]1C(=O)Nc1ncc(-c2ccccc2)s1 (stereo partly drawn) [Compound 567, ((2-(((2S)-1-((2S,4R)-4-(8-(2-(2,6-dioxopiperidin-3-yl)-1-oxoisoindolin-4-yl)oct-7-ynamido)-2-((5-phenylthiazol-2-yl)carbamoyl)pyrrolidin-1-yl)-3,3-dimethyl-1-oxobutan-2-yl)carbamoyl)benzo[b]thiophen-5-yl)difluoromethyl)phosphonic acid] | > 0.3 µM | > 0.3 µM | – | – | – | – |
| CC(C)(C)[C@H](NC(=O)c1cc2cc(C(F)(F)P(=O)(O)O)ccc2s1)C(=O)N1CCC[C@H]1C(=O)N(CCC(=O)NCCCCC#Cc1cccc2c1CN(C1CCC(=O)NC1=O)C2=O)c1ccc(Br)cc1 (stereo partly drawn) [Compound 686, ((2-(((2S)-1-((2S)-2-((4-bromophenyl)(3-((6-(2-(2,6-dioxopiperidin-3-yl)-1-oxoisoindolin-4-yl)hex-5-yn-1-yl)amino)-3-oxopropyl)carbamoyl)pyrrolidin-1-yl)-3,3-dimethyl-1-oxobutan-2-yl)carbamoyl)benzo[b]thiophen-5-yl)difluoromethyl)phosphonic acid] | – | – | 0.1 to 1 µM | – | – | DC50 [1, 5]: > 10 µM |
| CN(CCCC#Cc1cccc2c1CN(C1CCC(=O)NC1=O)C2=O)C(=O)CCN(C(=O)[C@@H]1CCCN1C(=O)[C@@H](NC(=O)c1cc2cc(C(F)(F)P(=O)(O)OCOC(=O)C(C)(C)C)ccc2s1)C(C)(C)C)c1ccc2sccc2c1 (stereo partly drawn) [Compound 671, ((((2-(((2S)-1-((2S)-2-(benzo[b]thiophen-5-yl(3-((5-(2-(2,6-dioxopiperidin-3-yl)-1-oxoisoindolin-4-yl)pent-4-yn-1-yl)(methyl)amino)-3-oxopropyl)carbamoyl)pyrrolidin-1-yl)-3,3-dimethyl-1-oxobutan-2-yl)carbamoyl)benzo[b]thiophen-5-yl)difluoromethyl)(hydroxy)phosphoryl)oxy)methyl pivalate] | > 0.3 µM | – | – | < 0.1 µM | – | – |
| O=C(CCN(C(=O)CN1CCCC[C@H](NC(=O)c2cc3cc(C(F)(F)P(=O)(O)O)ccc3s2)C1=O)c1ccc(Br)cc1)NCCCC#Cc1cccc2c1CN(C1CCC(=O)NC1=O)C2=O (stereo partly drawn) [Compound 664, ((2-(((3S)-1-(2-((4-bromophenyl)(3-((5-(2-(2,6-dioxopiperidin-3-yl)-1-oxoisoindolin-4-yl)pent-4-yn-1-yl)amino)-3-oxopropyl)amino)-2-oxoethyl)-2-oxoazepan-3-yl)carbamoyl)benzo[b]thiophen-5-yl)difluoromethyl)phosphonic acid] | > 0.3 µM | > 0.3 µM | – | – | – | – |
| CN(C(=O)[C@@H]1C[C@@H](OCC(=O)NCCCCCCCCCC#Cc2cccc3c2CN(C2CCC(=O)NC2=O)C3=O)CN1C(=O)[C@@H](NC(=O)c1cc2cc(C(F)(F)P(=O)(O)O)ccc2s1)C(C)(C)C)c1ccc(Br)cc1 (stereo partly drawn) [Compound 415, ((2-(((2S)-1-((2S,4R)-2-((4-bromophenyl)(methyl)carbamoyl)-4-(2-((11-(2-(2,6-dioxopiperidin-3-yl)-1-oxoisoindolin-4-yl)undec-10-yn-1-yl)amino)-2-oxoethoxy)pyrrolidin-1-yl)-3,3-dimethyl-1-oxobutan-2-yl)carbamoyl)benzo[b]thiophen-5-yl)difluoromethyl)phosphonic acid] | – | – | – | – | > 10 µM | DC50 ([1]; L1236 cells, read-out: DC50 S6 L1236): > 10 µM; DC50 [1, 10]: > 10 µM |
| CC(C)(C)[C@H](NC(=O)c1cc2cc(C(F)(F)P(=O)(O)O)ccc2s1)C(=O)N1CCC[C@H]1C(=O)N(CCC(=O)NCCCCCCC#Cc1cccc2c1CN(C1CCC(=O)NC1=O)C2=O)c1ccc(Br)cc1 (stereo partly drawn) [Compound 404, ((2-(((2S)-1-((2S)-2-((4-bromophenyl)(3-((8-(2-(2,6-dioxopiperidin-3-yl)-1-oxoisoindolin-4-yl)oct-7-yn-1-yl)amino)-3-oxopropyl)carbamoyl)pyrrolidin-1-yl)-3,3-dimethyl-1-oxobutan-2-yl)carbamoyl)benzo[b]thiophen-5-yl)difluoromethyl)phosphonic acid] | – | – | 0.1 to 1 µM | 0.1 to 1 µM | 1 to 10 µM | DC50 [1, 10]: > 10 µM; DC50 [1, 6]: > 10 µM |
| CC(C)(C)[C@H](NC(=O)c1cc2cc(C(F)(F)P(=O)(O)O)ccc2s1)C(=O)N1CCC[C@H]1C(=O)N(CCC(=O)NCCCC#Cc1cccc2c1CN(C1CCC(=O)NC1=O)C2=O)c1ccc2sccc2c1 (stereo partly drawn) [Compound 650, ((2-(((2S)-1-((2S)-2-(benzo[b]thiophen-5-yl(3-((5-(2-(2,6-dioxopiperidin-3-yl)-1-oxoisoindolin-4-yl)pent-4-yn-1-yl)amino)-3-oxopropyl)carbamoyl)pyrrolidin-1-yl)-3,3-dimethyl-1-oxobutan-2-yl)carbamoyl)benzo[b]thiophen-5-yl)difluoromethyl)phosphonic acid] | > 0.3 µM | – | 0.1 to 1 µM | < 0.1 µM | 0.1 to 1 µM | – |
